Measurements: patent publication US8080580B2, “Dioxa-bicyclo[3.2.1]octane-2,3,4-triol derivatives” (Pfizer Inc., priority 2008, dated 2011)
Values joined by “and” are separate entries in the source; they are usually repeats but may differ in a detail not shown here. Equal entries are not always repeated.

Key:
[1] = Pharmacokinetic testing in rats (IV or PO); assay type: in vivo; conditions: rat, IV, 2 mg/kg
Method: Examples 1A, 2A, 4A, 12A, and 14A were tested in rats to assess pharmacokinetic parameters including maximum concentration (Cmax), area under the plasma concentration time curve (AUC), clearance (CL), steady state volume of distribution (Vss), half life (t1/2), and bioavailability (F). Male Sprague Dawley rats (˜300 g) were used. Rats received compound by intravenous (IV) or oral gavage (PO) administration and the doses tested including vehicle to formulate dosing solutions are listed in Table 5.
Following IV or PO administration, 0.2 mL blood was sampled from the jugular vein at various timepoints (Table 5). Twenty microL aliquots of plasma samples and standards were subjected to protein precipitation with acetonitrile containing an internal standard. Samples were vortexed and centrifuged to obtain supernatant which was analyzed by LC-MS/MS. Analyst (Version 1.4.1) was used to measure peak areas and peak area ratios of analyte to internal standard were calculated. LC-MS/MS conditions are as follows: Mass Spectrometer+Source Type was Sciex API 4000−Turbo Spray; HPLC pump was Shimadzu; Autosampler was CTC PAL Autosampler; Injection volume was 3.0 to 10 microL; A gradient was used with mobile phase A: 10 mM ammonium acetate and 1% Isopropyl alcohol in water; B: Acetonitrile; Flowrate 0.300 mL per minute (Column 2.0×30 mm 5 microm LUNA C18 column (phenomenex)). Detection mode was negative.
A calibration curve was constructed from the peak area ratios of the standards to the internal standard by applying a weighted linear (1/x or 1/x2) regression. The dynamic range of the standard curve was 5.00 ng/mL to 5000 ng/mL.
Pharmacokinetic parameters were determined from individual animal data using non-compartmental analysis in Watson (version 7.2). Concentrations below the limit of quantitation (BLQ) were recorded as 0 ng/mL for use in calculations.
The following calculations were used: AUC(0−τ)=Determined using the linear trapezoidal method AUC(0−□)=AUC(0−τ) plus extrapolated area determined by dividing plasma concentration at τ by the slope of the terminal log-linear phase CL=Dose/AUC(0−∞) Vdss=CL×MRT Cmax=Recorded directly from plasma concentration time curve Tmax=Recorded directly from plasma concentration time curve t½=ln(0.5)/slope of the terminal log-linear phase F %=AUC(0−∞)PO per dose/AUC(0−∞)IV per dose C(0)=Extrapolated by linear regression from the apparent distribution phase following IV administration MRT=AUMC(AUC(0−∞)/AUC(0−∞)

hSGLT1 = target: T1, hSGLT1 (Homo sapiens, UniProt P13866); experiment: SGLT1 functional assay: hSGLT1 IC50 (selectivity counter-screen to the SGLT2 AMG uptake assay); assay type: cell-based; conditions: individual runs (Run No.)
T1 sequence (P13866 1-664): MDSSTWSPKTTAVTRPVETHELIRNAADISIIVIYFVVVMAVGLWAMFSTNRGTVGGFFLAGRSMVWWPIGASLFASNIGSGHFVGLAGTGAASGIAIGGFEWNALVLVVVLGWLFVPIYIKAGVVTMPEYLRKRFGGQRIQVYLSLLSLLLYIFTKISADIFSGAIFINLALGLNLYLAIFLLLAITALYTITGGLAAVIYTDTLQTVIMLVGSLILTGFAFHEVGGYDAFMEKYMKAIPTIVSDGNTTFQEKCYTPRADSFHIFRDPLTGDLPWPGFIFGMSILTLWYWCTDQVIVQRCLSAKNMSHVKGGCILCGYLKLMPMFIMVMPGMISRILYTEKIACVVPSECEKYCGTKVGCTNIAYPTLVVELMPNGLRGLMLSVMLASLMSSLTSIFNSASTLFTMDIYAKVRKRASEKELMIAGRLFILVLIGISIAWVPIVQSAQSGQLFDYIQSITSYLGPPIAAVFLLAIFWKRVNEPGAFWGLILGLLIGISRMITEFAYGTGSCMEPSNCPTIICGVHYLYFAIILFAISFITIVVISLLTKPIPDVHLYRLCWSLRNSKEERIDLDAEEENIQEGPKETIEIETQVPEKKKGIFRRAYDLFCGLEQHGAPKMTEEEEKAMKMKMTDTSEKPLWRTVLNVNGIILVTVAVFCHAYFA

human SGLT2 = target: T2, human SGLT2 (Homo sapiens, UniProt P31639); experiment: SGLT2 functional assay: inhibition of AMG uptake in CHO-FlpIn cells stably expressing human SGLT2; assay type: cell-based; conditions: individual runs (Run No.), read-out: hSGLT2 IC50
T2 construct: expressed in transfected cells; host or cells: CHO-FlpIn (Invitrogen)
T2 sequence (P31639 1-672): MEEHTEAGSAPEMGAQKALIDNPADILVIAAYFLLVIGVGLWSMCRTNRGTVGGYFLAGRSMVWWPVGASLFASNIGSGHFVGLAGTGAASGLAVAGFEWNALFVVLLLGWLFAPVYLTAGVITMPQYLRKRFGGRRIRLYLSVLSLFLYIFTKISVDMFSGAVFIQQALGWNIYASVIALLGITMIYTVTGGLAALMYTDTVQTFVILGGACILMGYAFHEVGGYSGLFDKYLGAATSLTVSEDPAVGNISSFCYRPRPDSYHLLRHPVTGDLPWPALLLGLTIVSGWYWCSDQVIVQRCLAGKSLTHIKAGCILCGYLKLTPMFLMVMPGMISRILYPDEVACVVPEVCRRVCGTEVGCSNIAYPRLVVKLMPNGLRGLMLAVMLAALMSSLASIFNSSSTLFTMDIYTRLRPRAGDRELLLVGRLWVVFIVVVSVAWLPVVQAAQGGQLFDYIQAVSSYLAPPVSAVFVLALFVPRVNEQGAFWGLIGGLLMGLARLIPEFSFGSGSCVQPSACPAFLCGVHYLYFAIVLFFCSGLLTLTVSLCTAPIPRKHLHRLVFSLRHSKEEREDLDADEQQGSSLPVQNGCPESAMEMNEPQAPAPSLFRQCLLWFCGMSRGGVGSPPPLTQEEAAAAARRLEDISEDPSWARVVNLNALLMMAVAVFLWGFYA
Excerpt: The SGLT2 functional assay was designed to detect the inhibition of methyl-alpha-D glucopyranoside (AMG—a non-metabolizable form of glucose) uptake via the SGLT2 transporter. The SGLT2 transporter recovers glucose from the proximal tubules of the kidney; its inhibition results in sugar wasted in the urine. The positive control compound, Phlorizin, is a known inhibitor of glucose uptake for SGLT2 and was used for comparing the high percent effect of SGLT2 inhibition of the test compounds.
CHO-FlpIn (Invitrogen, Carlsbad, Calif.) cells stably expressing human SGLT2 (pcDNA5/FRT) were plated in Iso-TC 96 well plates (Perkin Elmer, Waltham, Mass.) at a density of 100,000 cells/well in 100 microL of growth media (1:1 F-12/DMEM media (Gibco, Carlsbad, Calif.), 10% FBS (Sigma, St. Louis Mo.), 1× Pen/Strep (Gibco, Carlsbad, Calif.), 600 microg/mL Hygromycin (Invitrogen, Carlsbad, Calif.)). Prior to treating with test compound, confluent cells were serum starved for 2 hours at 37° C. in 1:1 F-12/DMEM media, replacing with fresh F-12/DMEM media after 1 hour. […] Cell plates were then incubated for 3 hours at 37° C. for AMG uptake.

SMILES	IC50 (hSGLT1)	IC50 (human SGLT2)	other results
CCOc1ccc(Cc2cc([C@]34OC[C@](CO)(O3)[C@@H](O)[C@H](O)[C@H]4O)ccc2C)cc1 [Example 2A, (1S,2S,3S,4R,5S)-5-[3-(4-ethoxy-benzyl)-4-methyl-phenyl]-1-hydroxymethyl-6,8-dioxa-bicyclo[3.2.1]octane-2,3,4-triol]	1240 nM and > 1000 nM and 679 nM	0.827 nM and 1.53 nM and 0.942 nM and 0.741 nM and 1.58 nM and 1.05 nM	AUC(0-inf) ([1]; male, Sprague Dawley, plasma): 1340 ng·h/mL; CL [1]: 27.7 mL/min/kg; Vss [1]: 1.03 L/kg; t1/2 [1]: 56.4 min
COc1ccc(Cc2cc([C@]34OC[C@](CO)(O3)[C@@H](O)[C@H](O)[C@H]4O)ccc2Cl)cc1 [Example 3A, (1S,2S,3S,4R,5S)-5-[4-chloro-3-(4-methoxy-benzyl)-phenyl]-1-hydroxymethyl-6,8-dioxa-bicyclo[3.2.1]octane-2,3,4-triol]	543 nM and 397 nM and 550 nM and 757 nM and 523 nM and 672 nM and 380 nM	0.479 nM and 0.972 nM and 1.39 nM and 0.811 nM and 0.602 nM and 0.588 nM and 1.35 nM	AUC(0-inf) ([1]; male, Sprague Dawley, plasma): 1410 ng·h/mL; half-life ([1]; male, Sprague Dawley, plasma): 94.8 min; CL [1]: 23.8 mL/min/kg; Vss [1]: 1.82 L/kg
COc1ccc(Cc2cc([C@]34OC[C@](CO)(O3)[C@@H](O)[C@H](O)[C@@H]4O)ccc2Cl)cc1 [Example 3B, (1S,2S,3S,4S,5S)-5-[4-chloro-3-(4-methoxy-benzyl)-phenyl]-1-hydroxymethyl-6,8-dioxa-bicyclo[3.2.1]octane-2,3,4-triol]	> 10000 nM	41.6 nM and 40.8 nM and 27.9 nM and 62.2 nM	
CCOc1ccc(Cc2cc([C@]34OC[C@](CO)(O3)[C@@H](O)[C@H](O)[C@@H]4O)ccc2Cl)cc1 [Example 4B, (1S,2S,3S,4S,5S)-5-[4-chloro-3-(4-ethoxy-benzyl)-phenyl]-1-hydroxymethyl-6,8-dioxa-bicyclo[3.2.1]octane-2,3,4-triol]	> 10000 nM	122 nM and 66.8 nM and 81.7 nM	
COc1ccc(Cc2cc([C@]34OC[C@](CO)(O3)[C@@H](O)[C@H](O)[C@H]4O)ccc2F)cc1 [Example 5A, (1S,2S,3S,4R,5S)-5-[4-fluoro-3-(4-methoxy-benzyl)-phenyl]-1-hydroxymethyl-6,8-dioxa-bicyclo[3.2.1]octane-2,3,4-triol]	> 10000 nM and > 1000 nM and 5790 nM		
COc1ccc(Cc2cc([C@]34OC[C@](CO)(O3)[C@@H](O)[C@H](O)[C@@H]4O)ccc2F)cc1 [Example 5B, (1S,2S,3S,4S,5S)-5-[4-fluoro-3-(4-methoxy-benzyl)-phenyl]-1-hydroxymethyl-6,8-dioxa-bicyclo[3.2.1]octane-2,3,4-triol]	> 10000 nM	186 nM	
COc1ccc(Cc2cc([C@]34OC[C@](CO)(O3)[C@@H](O)[C@H](O)[C@H]4O)ccc2C#N)cc1 [Example 6A, 2-(4-methoxybenzyl)-4-((1S,2S,3S,4R,5S)-2,3,4-trihydroxy-1-(hydroxymethyl)-6,8-dioxa-bicyclo[3,2,1]oct-5-yl)-benzonitrile]	> 10000 nM and > 1000 nM and 8930 nM	18.7 nM and 9.99 nM and 13.5 nM and 13.4 nM and 5.71 nM and 7.67 nM	
CCOc1ccc(Cc2cc([C@]34OC[C@](CO)(O3)[C@@H](O)[C@H](O)[C@H]4O)ccc2C#N)cc1 [Example 7A, 2-(4-ethoxybenzyl)-4-((1S,2S,3S,4R,5S)-2,3,4-trihydroxy-1-(hydroxymethyl)-6,8-dioxa-bicyclo[3,2,1]oct-5-yl)-benzonitrile]	> 10000 nM	10.6 nM and 6.38 nM and 5.88 nM and 6.11 nM	
CCOc1ccc(Cc2cc([C@]34OC[C@](CO)(O3)[C@@H](O)[C@H](O)[C@H]4O)ccc2F)cc1 [Example 10A]	> 10000 nM		
CCOc1ccc(Cc2cc([C@]34OC[C@](CO)(O3)[C@@H](O)[C@H](O)[C@@H]4O)ccc2F)cc1 [Example 10B, (1S,2S,3S,4S,5S)-5-[3-(4-ethoxy-benzyl)-4-fluoro-phenyl]-1-hydroxymethyl-6,8-dioxa-bicyclo[3.2.1]octane-2,3,4-triol]	> 10000 nM	127 nM and 103 nM	
OC[C@@]12CO[C@@](c3ccc(F)c(Cc4ccc(OC5CCOC5)cc4)c3)(O1)[C@H](O)[C@@H](O)[C@@H]2O (stereo partly drawn) [Example 11A, (1S,2S,3S,4R,5S)-5-{4-fluoro-3-[4-(tetrahydro-furan-3-yloxy)-benzyl]-phenyl}-1-hydroxymethyl-6,8-dioxa-bicyclo[3.2.1]octane-2,3,4-triol]	> 10000 nM	9.6 nM and 11.9 nM and 19.8 nM and 7.13 nM	
OC[C@@]12CO[C@@](c3ccc(F)c(Cc4ccc(Cl)cc4)c3)(O1)[C@H](O)[C@@H](O)[C@@H]2O [Example 12A, (1S,2S,3S,4R,5S)-5-[3-(4-chlorobenzyl)-4-fluorophenyl]-1-hydroxymethyl-6,8-dioxabicyclo[3.2.1]octane-2,3,4-triol]	> 10000 nM and 5780 nM		AUC(0-inf) ([1]; male, Sprague Dawley, plasma): 2200 ng·h/mL; clearance ([1]; male, Sprague Dawley, plasma): 15.9 mL/min/kg; half-life ([1]; male, Sprague Dawley, plasma): 234 min; Vd ([1]; male, Sprague Dawley, plasma, read-out: Vss): 3.68 L/kg
OC[C@@]12CO[C@@](c3ccc(F)c(Cc4ccc(Cl)cc4)c3)(O1)[C@@H](O)[C@@H](O)[C@@H]2O [Example 12B, (1S,2S,3S,4S,5S)-5-[3-(4-chlorobenzyl)-4-fluorophenyl]-1-hydroxymethyl-6,8-dioxabicyclo[3.2.1]octane-2,3,4-triol]	> 3160 nM	32.3 nM	
OC[C@@]12CO[C@@](c3ccc(F)c(Cc4ccc(OC5COC5)cc4)c3)(O1)[C@H](O)[C@@H](O)[C@@H]2O [Example 13A, (1S,2S,3S,4R,5S)-5-{4-fluoro-3-[4-(oxetan-3-yloxy)-benzyl]-phenyl}-1-hydroxymethyl-6,8-dioxa-bicyclo[3.2.1]octane-2,3,4-triol]	> 10000 nM	14.9 nM and 17.8 nM	
